Counter-ions that a name gives are not always drawn.

Consider 5 compounds from US9951045B2, “Indazole compounds as 5-HT4 receptor agonists” (SUVEN LIFE SCIENCES LIMITED, priority 2013, dated 2018).

A short description of series [1]: Rodent brain penetration study. The format is in vivo, Male Wistar rats. As to conditions: male, Wistar, brain and plasma; rat, 3 mg/kg oral (gavage); read-out: Single dose Brain Penetration (Cb/Cp). As for the experimental part:
Male Wistar rats (225±25 grams) were used as experimental animals. Three animals were housed in each cage. Animals were given water and food ad libitum throughout the experiment and maintained on a 12 hours light/dark cycle.
Brain penetration was determined in discrete manner in rats. One day prior to dosing day, male wistar rats (225-250 grams) were acclimatized. After acclimatization the rats were grouped according to their weight. In each group, 3 animals were kept in individual cage and allowed free access to food and water. At each time point (0.50, 1, and 2 hours) n=3 animals were used.
The compounds of formula (I) were suitably preformulated and administered orally at (free base equivalent) 3 mg/kg. Blood samples were removed via, cardiac puncture by using isoflurane anesthesia. The animals were sacrificed to collect brain tissue. Plasma was separated and brain samples were homogenized and stored frozen at −20° C. until analysis. The concentrations of the compounds of formula (I) in plasma and brain were determined using LC-MS/MS method.
The compounds of formula (I) were quantified in plasma and brain homogenate by qualified LC-MS/MS method using suitable extraction technique. The compounds of formula (I) were quantified in the calibration range of 1-500 ng/mL in plasma and brain homogenate. Study samples were analyzed using calibration samples in the batch and quality control samples spread across the batch. Extent of brain-plasma ratio was calculated (Cb/Cp).

Series [2] has as its target T1, recombinant human 5-HT4 receptor (Homo sapiens, UniProt Q13639).
T1 construct: expressed in transfected cells
Description: Determination of EC50 values for 5-HT4 receptor (CHO cells, pCRE-Luc reporter). The format is cell-based. Particulars: luciferase reporter, 4 hours incubation, read-out: 5-HT4 receptor agonistic binding in-vitro EC50. The procedure: A stable CHO cell line expressing recombinant human 5-HT4 receptor and pCRE-Luc reporter system was used for cell-based assay. The assay offers a non-radioactive based approach to determine binding of a compound to GPCRs. In this specific assay, the level of intracellular cyclic AMP, which is modulated by activation, or inhibition of the receptor is measured. The recombinant cells harbor luciferase reporter gene under the control of cAMP response element.
The above cells were grown in 96 well clear bottom white plates in Hams F12 medium containing 10% fetal bovine serum (FBS). Prior to the addition of compounds or standard agonist, cells were serum starved overnight. Increasing concentrations of test compounds were added in OptiMEM medium to the cells. The incubation was continued at 37° C. in CO2 incubator for 4 hours. Medium was removed and cells were washed with phosphate buffered saline. The cells were lysed and luciferase activity was measured in a Luminometer. Luminescence units were plotted against the compound concentrations using Graphpad software. EC50 values of the compounds were defined as the concentration required in stimulating the luciferase activity by 50%.
(In general: In a reporter assay the amount or activity of a reporter protein is the signal.)

Series [3] deals with Male Wistar rats. Briefly: Object recognition task model. The format is in vivo. Particulars: rat, p.o. As for the experimental part:
The cognition enhancing properties of compounds of this invention were estimated by using this model.
Male Wistar rats (230-280 grams) were used as experimental animals. Four animals were housed in each cage. Animals were kept on 20% food deprivation before one day and given water ad libitum throughout the experiment and maintained on a 12 hours light/dark cycle. Also the rats were habituated to individual arenas for 1 hour in the absence of any objects.
One group of 12 rats received vehicle (1 mL/Kg) orally and another set of animals received compound of the formula (I) either orally or i.p., before one hour of the familiar (T1) and choice trial (T2).
The experiment was carried out in a 50×50×50 cm open field made up of acrylic. In the familiarization phase, (T1), the rats were placed individually in the open field for 3 minutes, in which two identical objects (plastic bottles, 12.5 cm height×5.5 cm diameter) covered in yellow masking tape alone (a1 and a2) were positioned in two adjacent corners, 10 cms from the walls. After 24 hours of the (T1) trial for long-term memory test, the same rats were placed in the same arena as they were placed in T1 trial. Choice phase (T2) rats were allowed to explore the open field for 3 minutes in presence of one familiar object (a3) and one novel object (b) (Amber color glass bottle, 12 cm high and 5 cm in diameter). Familiar objects presented similar textures, colors and sizes. During the T1 and T2 trial, explorations of each object (defined as sniffing, licking, chewing or having moving vibrissae whilst directing the nose towards the object at a distance of less than 1 cm) were recorded separately by stopwatch. Sitting on an object was not regarded as exploratory activity, however, it was rarely observed.
T1 is the total time spent exploring the familiar objects (a1+a2).
T2 is the total time spent exploring the familiar object and novel object (a3+b).
The object recognition test was performed as described by Behaviour Brain Research, 31 (1988), 47-59.

A short description of series [4]: Rodent pharmacokinetic study. As to conditions: male, Wistar, plasma, rat; for bioavailability: 3 mg/kg oral vs 1 mg/kg intravenous. The format is in vivo, Male wistar rats. The procedure:
Male wistar rats (225=25 grams) were used as experimental animals. Three to five animals were housed in each cage. Two days prior to dosing day, male wistar rats (225-250 grams) were anesthetized with isoflurane for surgical placement of jugular vein catheter. Animals were fasted over night before oral dosing (p.o) and food pellets were allowed 2 hours post dosing, whereas during intravenous dosing food and water were provided as ad libitum. Three rats were dosed with compounds of formula (I) (3 mg/kg) orally and intravenously (1 mg/kg).
At each time point blood was collected through jugular vein and immediately replenish with an equivalent volume of normal saline from freely moving rats. Collected blood was transferred into a labeled eppendr off containing 10 μL of heparin as anticoagulant. Typically blood samples were collected as following time points: Pre dose, 0.08 (only i.v.), 0.25, 0.5, 1, 2, 4, 6, 8, and 24 hours post
dose (n=3). Blood was centrifuged at 4000 rpm for 10 minutes. Plasma was prepared and stored frozen at −20° C. until analysis. The concentrations of the compounds of formula (I) were quantified in plasma by qualified LC-MS/MS method using suitable extraction technique. The compounds of formula (I) were quantified in the calibration range around 2-2000 ng/mL in plasma. Study samples were analyzed using calibration samples in the batch and quality control samples spread across the batch.
Pharmacokinetic parameters Cmax, Tmax, AUCt, T1/2 and Bioavailability were calculated by non-compartmental model using standard non-compartmental model by using WinNonLin 5.0.1 or Phoenix WinNonlin 6.2 version Software package.

Series [5] relates to Scopolamine Induced amnesia. Briefly: Radial arm maze. The format is in vivo, rats. Particulars: p.o. The source says: The cognition enhancing properties of compounds of formula (I) of this invention were estimated by using this model. Radial arm maze consists of a central hub of 45 cm diameter. Each arm was of dimension 42.5×15×24 cm. The maze was elevated to a height of 1 m above the ground. The animals were placed on a restricted diet until they reached approximately 85% of their free feeding weight. During this diet restriction period animals were habituated to the novel feed (pellets). Once the rats reached approximately 85% of their free feeding weight rats were habituated to the maze on the 1^St and 2nd day. […] Animals were randomized on day 2. On the subsequent days the treatment was given as per the allotment. Each animal was introduced into the maze individually for a period of 10 minutes. The arms were baited only once and the animal had to learn the rule that repeated arm entries would not be rewarded. The trial ended once the rat had visited 16 arms or 10 minutes were over or all the pellets were eaten. The arm entries were recorded using the software. Once the trial was over the rat was removed and the maze was cleaned using soap water.

Series [6] deals with sAPPα. Briefly: Estimation of mice brain cortical sAPPα levels (ELISA). As to conditions: 0.1 and 10 mg/kg s.c., single injection, 60 minutes. The format is in vivo. The procedure: 1. […] 2. […] 3. […] 4. […] 5. […] Statistical analyses were performed using the Graph Pad Prism (Version 4). […] Values were compared between the different groups by using unpaired t test.

T1 sequence (Q13639 whole entry): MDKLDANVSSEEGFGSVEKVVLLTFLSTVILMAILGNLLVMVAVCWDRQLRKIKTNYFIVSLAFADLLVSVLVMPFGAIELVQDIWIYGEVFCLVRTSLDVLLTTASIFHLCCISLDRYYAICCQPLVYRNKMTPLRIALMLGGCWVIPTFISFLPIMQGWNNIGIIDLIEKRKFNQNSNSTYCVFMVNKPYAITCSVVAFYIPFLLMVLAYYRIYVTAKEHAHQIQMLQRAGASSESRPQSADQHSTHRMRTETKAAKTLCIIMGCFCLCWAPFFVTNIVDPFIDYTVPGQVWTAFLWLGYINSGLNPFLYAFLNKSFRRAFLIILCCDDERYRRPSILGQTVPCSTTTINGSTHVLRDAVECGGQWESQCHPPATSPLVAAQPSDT

For orientation: EC50 means the concentration needed to bring the measured effect to its halfway point. Broadly, the AUC(0-t) is exposure summed from dosing to a finite time, without extrapolation to infinity. The term half-life denotes the time in which the quantity being followed falls by half. For orientation: Cmax means the peak of the concentration-time curve. Broadly, the Tmax is the time from dosing to the highest level. A word on the bioavailability: it is dose-corrected exposure relative to a reference, in per cent. As to `CC(C)n1cc2cccc(C(=O)NCC3CCN(CC(C)(C)O)CC3)c2n1.O=C(O)C(O)C(O)C(=O)O` [Example 32, N—[N-(2-hydroxy-2-methylpropyl)piperidin-4-ylmethyl]-2-isopropyl-2H-indazole-7-carboxamide L(+) Tartarate], the Kp in series [1] turned out to be 0.52 ± 0.08. Further, the EC50 in series [2] is no more than 1 nM. For the same compound, in series [3] (0.3 mg/kg), the “Exploration time mean ± S.E.M, Familiar object” value is 7.79 ± 1.27 s; the “Exploration time mean ± S.E.M, Novel object” value was found to be 17.98 ± 2.41 s; the Inference entry is “Active”. Besides, in series [4] (1 mg/kg intravenous (bolus)), the AUC(0-t) amounted to 281 ± 6 ng·h/mL and the half-life is 72 ± 6 min. Moreover, in series [4] (3 mg/kg oral (gavage)), the AUC(0-t) was found to be 155 ± 3 ng·h/mL, the Cmax is 110 ± 8 ng/mL, the Tmax was found to be 30 min and the half-life is 48 min. The bioavailability in series [4] was determined as 18%. For the same compound, in series [5], the “Reversal of Scopolamine Induced amnesia - Effective dose range” value (“Reversal of Scopolamine Induced amnesia” for short) is 0.3 mg/kg, p.o.
Turning to `COCCCN1CC2C(CNC(=O)c3cccc4cn(C(C)C)nc34)C2C1.O=C(O)C(=O)O` (centres unmarked) [Example 3, N—[N-(3-methoxypropyl)-3-azabicyclo[3.1.0]hexane-6-ylmethyl]-2-isopropyl-2H-indazole-7-carboxamide oxalate], in series [1], the Kp came out at 0.96 ± 0.12. Also, in series [2], the EC50 lay in the range of 1.1 to 5 nM. Moreover, in series [6], the “increase of mice brain cortical sAPPα levels in comparison with control group” value is 25-30%. For the same compound, in series [3] (1 mg/kg), the “Exploration time mean ± S.E.M, Familiar object” value was 5.67 ± 1.15 s; the “Exploration time mean ± S.E.M, Novel object” value was determined as 14.26 ± 1.64 s; the Inference entry is given as “Active”. Also, in series [4] (1 mg/kg intravenous (bolus)), the AUC(0-t) was determined as 397 ± 28 ng·h/mL and the half-life is 54 ± 6 min. In addition, in series [4] (3 mg/kg oral (gavage)), the AUC(0-t) is 560 ± 117 ng·h/mL, the Cmax was determined as 467 ± 37 ng/mL, the Tmax is 19.8 ± 8.4 min and the half-life is 48 ± 6 min. For the same compound, the bioavailability in series [4] was 47 ± 10%. Besides, in series [5], the “Reversal of Scopolamine Induced amnesia” value is reported as 3 mg/kg, p.o.
On to `CCn1cc2cccc(C(=O)NCC3CCN(CC4CCOCC4)CC3)c2n1.O=C(O)/C=C/C(=O)O` [Example 2, N—[(N-tetrahydropyran-4-ylmethyl)piperidin-4-ylmethyl]-2-ethyl-2H-indazole-7-carboxamide fumarate], for which the Kp in series [1] was 1 ± 0.15. Also, the EC50 in series [2] was no more than 1 nM. For the same compound, in series [3] (0.3 mg/kg), the “Exploration time mean ± S.E.M, Familiar object” value is 7.21 ± 1.99 s; the “Exploration time mean ± S.E.M, Novel object” value amounted to 13.10 ± 1.78 s; the Inference entry is “Active”. In series [4] (1 mg/kg intravenous (bolus)), the AUC(0-t) was 145 ± 18 ng·h/mL and the half-life was 102 ± 30 min. In series [4] (3 mg/kg oral (gavage)), the AUC(0-t) was found to be 190 ± 43 ng·h/mL, the concentration peaked (Cmax) at 223 ± 118 ng/mL, the Tmax stood at 19.8 ± 8.4 min and the half-life was 66 ± 36 min. In addition, the bioavailability in series [4] was determined as 44 ± 10%. Besides, the “Reversal of Scopolamine Induced amnesia” value in series [5] is given as 0.3 mg/kg, p.o.
Take `CC(C)n1cc2cccc(C(=O)NCC3CCN(CC4CCOCC4)CC3)c2n1` [Example 1, N—[(N-tetrahydropyran-4-ylmethyl)piperidin-4-ylmethyl]-2-isopropyl-2H-indazole-7-carboxamide fumarate]: the Kp in series [1] turned out to be 0.98 ± 0.34. The EC50 in series [2] was no more than 1 nM. For the same compound, in series [3] (1 mg/kg), the “Exploration time mean ± S.E.M, Familiar object” value was determined as 8.51 ± 1.35 s; the “Exploration time mean ± S.E.M, Novel object” value was 15.51 ± 1.37 s; the Inference result is “Active”. In series [4] (1 mg/kg intravenous (bolus)), the AUC(0-t) is 287 ± 40 ng·h/mL and the half-life was 66 ± 6 min. Moreover, in series [4] (3 mg/kg oral (gavage)), the AUC(0-t) is 212 ± 46 ng·h/mL, the highest level (Cmax) was 107 ± 22 ng/mL, the Tmax came to 25.2 ± 8.4 min and the half-life was 90 min. This compound also displayed a bioavailability in series [4] of 25 ± 5%.
With `CC(C)n1cc2cccc(C(=O)NC3CCN(CC4CCC4)CC3)c2n1` [Example 21, N—(N-cyclobutylmethylpiperidine-4-yl)-2-isopropyl-2H-indazole-7-carboxamide fumarate], the EC50 in series [2] was in the range of 5.1 to 20 nM.
